In this test the target is T1, P-selectin (Homo sapiens, UniProt P16109).
T1 sequence (P16109 whole entry): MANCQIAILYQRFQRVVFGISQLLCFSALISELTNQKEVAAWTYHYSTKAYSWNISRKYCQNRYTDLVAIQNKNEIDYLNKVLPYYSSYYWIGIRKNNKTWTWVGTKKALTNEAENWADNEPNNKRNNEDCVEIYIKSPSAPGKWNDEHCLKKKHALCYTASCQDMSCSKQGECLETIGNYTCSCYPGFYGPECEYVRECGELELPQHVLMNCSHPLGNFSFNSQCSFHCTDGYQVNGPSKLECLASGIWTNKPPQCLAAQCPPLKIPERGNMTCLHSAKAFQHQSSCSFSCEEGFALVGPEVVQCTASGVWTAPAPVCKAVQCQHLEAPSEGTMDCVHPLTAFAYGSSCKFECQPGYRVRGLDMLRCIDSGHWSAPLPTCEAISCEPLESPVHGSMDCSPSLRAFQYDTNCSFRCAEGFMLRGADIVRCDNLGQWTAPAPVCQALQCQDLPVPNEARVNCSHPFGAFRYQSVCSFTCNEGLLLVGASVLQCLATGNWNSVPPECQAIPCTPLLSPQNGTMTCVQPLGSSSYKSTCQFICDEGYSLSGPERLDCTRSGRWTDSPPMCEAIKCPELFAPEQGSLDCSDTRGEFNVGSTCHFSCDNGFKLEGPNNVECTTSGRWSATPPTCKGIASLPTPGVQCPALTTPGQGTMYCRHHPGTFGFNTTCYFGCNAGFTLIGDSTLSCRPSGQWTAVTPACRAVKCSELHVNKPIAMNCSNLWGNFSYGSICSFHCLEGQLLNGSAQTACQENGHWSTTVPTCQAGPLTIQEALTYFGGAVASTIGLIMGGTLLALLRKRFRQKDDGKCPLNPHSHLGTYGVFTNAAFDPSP
Nature of the test: Inhibitory activity against Selectin P IgG chimera binding to HL-60 cells, by binding to Selectin P. It is filed as cell-based.

pIC50: −log10 of the molar value.

`CCCCCCCCCCCCC#CC#CCCCCCCCCC(=O)NCCO`: the pIC50 was 6.30.
In the case of `CCCCCCCCCCCCC#CC#CCCCCCCCCC(=O)NCCSCCCN(C(C)=O)[C@@H]1O[C@@H](CO)[C@@H](O[C@@H]2O[C@@H](CO)[C@H](O)[C@H](OCC(=O)O)[C@@H]2O)[C@H](O[C@@H]2O[C@@H](C)[C@@H](O)[C@H](O)[C@@H]2O)[C@@H]1O` it was 8.70.

Broadly, the pIC50 is the IC50 on a negative log10 scale, so that one unit is a factor of ten. The low end stands for a large IC50, the high end for a small IC50.
